# Assay results from ChEMBL document CHEMBL1151113, “Umuhengerin, a new antimicrobially active flavonoid from Lantana trifolia” (1988).
# The source made the active and inactive calls. The rule behind the calls is not given here.
# Tests used:
# [1] = tested on: Trichophyton mentagrophytes; assay: Antifungal activity against Trichophyton mentagrophytes; type: functional
# Aspergillus fumigatus = assay: Antifungal activity against Aspergillus fumigatus; type: functional
# Serratia marcescens = assay: Antibacterial activity against Serratia marcescens; type: functional
# Neisseria gonorrhoeae = assay: Antibacterial activity against Neisseria gonorrhoeae; type: functional
# Candida albicans = assay: Antifungal activity against Candida albicans; type: functional
# Semliki Forest virus = assay: Antiviral activity against Semliki forest virus in african green monkey Vero cells; type: functional, organism-based
# Pseudomonas aeruginosa = assay: Antibacterial activity against Pseudomonas aeruginosa; type: functional
# Klebsiella pneumoniae = assay: Antibacterial activity against Klebsiella pneumoniae; type: functional
# [2] = tested on: Mycolicibacterium fortuitum; assay: Antibacterial activity against Mycobacterium fortuitum; type: functional
# Streptococcus pyogenes = assay: Antibacterial activity against Streptococcus pyogenes; type: functional
# Poliovirus 1 = assay: Antiviral activity against Human poliovirus 1 1A/S2 in african green monkey Vero cells; type: functional, organism-based
# Shigella flexneri = assay: Antibacterial activity against Shigella flexneri; type: functional
# Aspergillus niger = assay: Antifungal activity against Aspergillus niger; type: functional
# Klebsiella aerogenes = assay: Antibacterial activity against Enterobacter aerogenes; type: functional
# Escherichia coli = assay: Antibacterial activity against Escherichia coli; type: functional
# Microsporum canis = assay: Antifungal activity against Microsporum canis; type: functional
# Human alphaherpesvirus 1 = assay: Antiviral activity against Herpes simplex virus 1 in african green monkey Vero cells; type: functional, organism-based
# Staphylococcus aureus = assay: Antibacterial activity against Staphylococcus aureus ATCC 25923; type: functional
# Trichophyton rubrum = assay: Antifungal activity against Trichophyton rubrum; type: functional
# Aspergillus flavus = assay: Antifungal activity against Aspergillus flavus; type: functional
# Streptococcus pneumoniae = assay: Antibacterial activity against Streptococcus pneumoniae; type: functional
# Salmonella typhimurium = assay: Antibacterial activity against Salmonella Typhimurium; type: functional, Salmonella enterica subsp. enterica serovar Typhimurium; details: Salmonella enterica
# Proteus vulgaris = assay: Antibacterial activity against Proteus vulgaris; type: functional
# Coxsackievirus = assay: Antiviral activity against Coxsackievirus B2 in african green monkey Vero cells; type: functional, organism-based
# Micrococcus = assay: Antibacterial activity against Micrococcus sp.; type: functional
# Candida tropicalis = assay: Antifungal activity against Candida tropicalis; type: functional
# Streptococcus viridans = assay: Antibacterial activity against Streptococcus viridans; type: functional
smiles,measurement,setting,value
COc1cc(-c2cc(=O)c3c(O)c(OC)c(OC)cc3o2)cc(OC)c1OC [GRADENIN A],MIC,[1],50 µg/mL
same,MIC,Aspergillus fumigatus,200 µg/mL
same,MIC,Serratia marcescens,> 200 µg/mL
same,MIC,Neisseria gonorrhoeae,> 200 µg/mL
same,MIC,Candida albicans,> 200 µg/mL
same,Activity,Semliki Forest virus,inactive
same,MIC,Pseudomonas aeruginosa,> 200 µg/mL
same,MIC,Klebsiella pneumoniae,> 200 µg/mL
same,MIC,[2],> 200 µg/mL
same,MIC,Streptococcus pyogenes,> 200 µg/mL
same,Activity,Poliovirus 1,inactive
same,MIC,Shigella flexneri,> 200 µg/mL
same,MIC,Aspergillus niger,200 µg/mL
same,MIC,Klebsiella aerogenes,> 200 µg/mL
same,MIC,Escherichia coli,> 200 µg/mL
same,MIC,Microsporum canis,50 µg/mL
same,Activity,Human alphaherpesvirus 1,inactive
same,MIC,Staphylococcus aureus,20 µg/mL
same,MIC,Trichophyton rubrum,> 200 µg/mL
same,MIC,Aspergillus flavus,> 200 µg/mL
same,MIC,Streptococcus pneumoniae,> 200 µg/mL
same,MIC,Salmonella typhimurium,5 µg/mL
same,MIC,Proteus vulgaris,> 200 µg/mL
same,Activity,Coxsackievirus,inactive
same,MIC,Micrococcus,> 200 µg/mL
same,MIC,Candida tropicalis,20 µg/mL
same,MIC,Streptococcus viridans,> 200 µg/mL
